These results are taken from patent publication US11180496B2 (Daewoong Pharmaceutical Co., Ltd., priority 2017, dated 2021).

Structures are written as SMILES. A value given as a limit tells only on which side of the number the result lay.

The target of one assay is T1, ITK (Homo sapiens, UniProt Q08881).
T1 construct: purchased Promega
T1 sequence (Q08881 1-620): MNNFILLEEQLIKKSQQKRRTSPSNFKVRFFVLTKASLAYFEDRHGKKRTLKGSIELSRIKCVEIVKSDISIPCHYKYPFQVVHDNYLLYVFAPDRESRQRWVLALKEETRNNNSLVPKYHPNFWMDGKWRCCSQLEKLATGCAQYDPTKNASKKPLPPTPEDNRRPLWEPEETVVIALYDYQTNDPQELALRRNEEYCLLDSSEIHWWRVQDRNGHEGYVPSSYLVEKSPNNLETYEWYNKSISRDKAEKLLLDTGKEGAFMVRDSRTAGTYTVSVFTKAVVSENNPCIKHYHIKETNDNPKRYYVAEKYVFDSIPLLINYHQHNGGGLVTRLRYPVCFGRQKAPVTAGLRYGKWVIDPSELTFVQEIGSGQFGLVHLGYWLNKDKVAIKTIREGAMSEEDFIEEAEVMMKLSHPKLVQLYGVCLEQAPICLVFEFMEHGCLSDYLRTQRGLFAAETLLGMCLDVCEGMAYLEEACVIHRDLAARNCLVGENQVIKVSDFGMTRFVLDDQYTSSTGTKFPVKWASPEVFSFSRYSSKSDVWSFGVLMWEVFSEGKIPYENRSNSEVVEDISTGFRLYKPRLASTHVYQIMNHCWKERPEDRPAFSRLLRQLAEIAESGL
As to the kind of experiment: ITK inhibitory activity, ADP-Glo + ITK Kinase enzyme system kit (Promega). The format is biochemical. To be noted: ITK enzyme 0.4 ng/uL, ATP 25 uM, 15 min preincubation, luminescence, duplicate. The method, boiled down:
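ITK activity by ADP-Glo luminescence: substrate and ATP (final 25 uM) reacted 1 h at 30° C, then ADP-Glo reagent 40 min and detection reagent 30 min at 30° C. IC50 from duplicates, normalised to no-compound and enzyme-free controls.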
(ADP-Glo first removes unused ATP, then detects ADP through luciferase.)

Another assay has as its target T2, BTK (Homo sapiens, UniProt Q06187).
T2 construct: purchased Promega
As to the kind of experiment: BTK inhibitory activity, ADP-Glo + BTK Kinase enzyme system kit (Promega). The format is biochemical. The conditions noted are these: BTK enzyme 1 ng/uL, ATP 10 uM, 15 min preincubation, luminescence, duplicate. The method, boiled down:
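BTK activity measured by ADP-Glo luminescence: kinase reaction with substrate and 10 uM ATP (final) for 1 h at 30°C, then ADP-Glo reagent 40 min and detection 30 min at 30°C. Run in duplicate; IC50 calculated relative to no-compound and positive controls.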

T2 sequence (Q06187 whole entry): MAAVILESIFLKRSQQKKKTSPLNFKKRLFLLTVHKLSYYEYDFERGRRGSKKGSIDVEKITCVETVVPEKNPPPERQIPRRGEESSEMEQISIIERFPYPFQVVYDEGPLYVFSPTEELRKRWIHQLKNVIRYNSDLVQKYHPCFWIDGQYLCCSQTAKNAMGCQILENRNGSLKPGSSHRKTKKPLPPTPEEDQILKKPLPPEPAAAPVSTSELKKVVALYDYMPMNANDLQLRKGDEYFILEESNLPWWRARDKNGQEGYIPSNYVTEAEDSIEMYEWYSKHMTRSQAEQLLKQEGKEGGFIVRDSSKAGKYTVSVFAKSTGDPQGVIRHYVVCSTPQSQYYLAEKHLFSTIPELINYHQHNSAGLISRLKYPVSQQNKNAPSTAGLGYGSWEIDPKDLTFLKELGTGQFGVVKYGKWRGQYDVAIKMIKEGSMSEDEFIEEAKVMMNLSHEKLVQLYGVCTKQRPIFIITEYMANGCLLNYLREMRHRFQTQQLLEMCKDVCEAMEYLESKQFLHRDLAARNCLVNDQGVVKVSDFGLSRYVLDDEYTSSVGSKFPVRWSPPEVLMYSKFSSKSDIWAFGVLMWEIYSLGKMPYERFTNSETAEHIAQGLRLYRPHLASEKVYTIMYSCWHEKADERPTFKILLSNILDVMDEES

Usually IC50 stands for the concentration that gives 50% inhibition. Take `C=CC(=O)N1CCC[C@@H](n2nc(C(=O)Nc3nc4cc(Cl)ccc4o3)c3c(N)nccc32)C1` [Example 71, (R)-1-(1-acryloylpiperidin-3-yl)-4-amino-N-(5-chlorobenzo[d]oxazol-2-yl)-1H-pyrazolo[4,3-c]pyridine-3-carboxamide]: the IC50 at ITK was determined as 4.1 nM; on BTK, 3.4 nM.

On to `C=CC(=O)N1CCC[C@@H](n2nc(-c3ccc(C(=O)Nc4ccccn4)cc3)c3c(N)ncc(Br)c32)C1` [Example 20, (R)-4-(1-(1-acryloylpiperidin-3-yl)-4-amino-7-bromo-1H-pyrazolo[4,3-c]pyridin-3-yl)-N-(pyridin-2-yl)benzamide], for which the IC50 at ITK is more than 1000 nM; at BTK, 15.2 nM.

Regarding `C=CC(=O)N1CCC[C@@H](n2nc(-c3ccc(C(=O)Nc4ccccc4)cc3)c3c(N)ncc(CO)c32)C1` [Example 27, (R)-4-(1-(1-acryloylpiperidin-3-yl)-4-amino-7-(hydroxymethyl)-1H-pyrazolo[4,3-c]pyridin-3-yl)-N-phenylbenzamide], the IC50 on ITK is more than 500 nM; at BTK, 8 nM.

As to `C=CC(=O)N1CCC[C@@H](n2nc(-c3ccc(C(=O)Nc4ccccn4)cc3Cl)c3c(N)nccc32)C1` [Example 56, (R)-4-(1-(1-acryloylpiperidin-3-yl)-4-amino-1H-pyrazolo[4,3-c]pyridin-3-yl)-3-chloro-N-(pyridin-2-yl)benzamide], the 50% inhibitory concentration (IC50) at ITK worked out at 0.6 nM; at BTK, 0.4 nM.

Turning to `C=C(C)C(=O)N1CCC[C@@H](n2nc(-c3ccc(C(=O)Nc4ccccn4)cc3F)c3c(N)nccc32)C1` [Example 54, (R)-4-(4-amino-1-(1-methacryloylpiperidin-3-yl)-1H-pyrazolo[4,3-c]pyridin-3-yl)-3-fluoro-N-(pyridin-2-yl)benzamide], the IC50 on ITK is more than 1000 nM; at BTK it was 77.5 nM.

Regarding `C=CC(=O)N1CCC[C@@H](n2nc(-c3ccc(C(=O)Nc4ccccc4)cc3)c3c(N)ncc(-c4cnn(CCN5CCOCC5)c4)c32)C1` [Example 38, (R)-4-(1-(1-acryloylpiperidin-3-yl)-4-amino-7-(1-(2-morpholinoethyl)-1H-pyrazol-4-yl)-1H-pyrazolo[4,3-c]pyridin-3-yl)-N-phenyl benzamide], the IC50 at ITK was found to be 186 nM; on BTK it was 2.6 nM.

For `C=CC(=O)N1CCC(n2nc(-c3ccc(Oc4ccccc4)cc3)c3c(N)ncc(I)c32)CC1` [Example 12, 1-(4-(4-amino-7-iodo-3-(4-phenoxyphenyl)-1H-pyrazolo[4,3-c]pyridin-1-yl)piperidin-1-yl)prop-2-en-1-one], the IC50 was more than 1000 nM on ITK and 7.7 nM at BTK.

For `C=CC(=O)N1CCC[C@@H](n2nc(-c3ccc(C(=O)Nc4ccccn4)cc3OC)c3c(N)nccc32)C1` [Example 57, (R)-4-(1-(1-acryloylpiperidin-3-yl)-4-amino-1H-pyrazolo[4,3-c]pyridin-3-yl)-3-methoxy-N-(pyridin-2-yl)benzamide], the 50% inhibitory concentration (IC50) at ITK stood at 11.4 nM; at BTK, 0.5 nM.

As for `C=CC(=O)N1CCCC(n2nc(-c3ccc(Oc4ccccc4)cc3)c3c(N)ncc(-c4cnn(C)c4)c32)C1` (stereo not shown) [Example 7, 1-(3-(4-amino-7-(1-methyl-1H-pyrazol-4-yl)-3-(4-phenoxyphenyl)-1H-pyrazolo[4,3-c]pyridin-1-yl)piperidin-1-yl)prop-2-en-1-one], the values for the IC50 at ITK and at BTK were 36.4 nM and 3 nM, respectively.

On to `C=CC(=O)N1CCC[C@@H](n2nc(-c3ccc(C(=O)Nc4ccccn4)cc3OC)c3c(N)ncc(Cl)c32)C1` [Example 59, (R)-4-(1-(1-acryloylpiperidin-3-yl)-4-amino-7-chloro-1H-pyrazolo[4,3-c]pyridin-3-yl)-3-methoxy-N-(pyridin-2-yl)benzamide], for which the IC50 on ITK came out at 26 nM; at BTK it was 3.7 nM.

On to `C=CC(=O)N1CCC[C@@H](n2nc(-c3ccc(C(=O)Nc4ccccn4)cc3)c3c(N)ncc(I)c32)C1` [Example 21, (R)-4-(1-(1-acryloylpiperidin-3-yl)-4-amino-7-iodo-1H-pyrazolo[4,3-c]pyridin-3-yl)-N-(pyridin-2-yl)benzamide], for which the figures for the IC50 on ITK and on BTK were more than 1000 nM and 10.7 nM, respectively.

On to `C=CC(=O)N1CCC[C@@H](n2nc(C(=O)Nc3nc4ccccc4o3)c3c(N)nccc32)C1` [Example 77, (R)-1-(1-acryloylpiperidin-3-yl)-4-amino-N-(benzo[d]oxazol-2-yl)-1H-pyrazolo[4,3-c]pyridine-3-carboxamide], for which the IC50 at ITK is 13.1 nM; on BTK, 5 nM.

With `C=CC(=O)N1CCC[C@@H](n2nc(-c3ccc(C(=O)Nc4ccccc4)cc3)c3c(N)ncc(-c4cn[nH]c4)c32)C1` [Example 28, (R)-4-(1-(1-acryloylpiperidin-3-yl)-4-amino-7-(1H-pyrazol-4-yl)-1H-pyrazolo[4,3-c]pyridin-3-yl)-N-phenylbenzamide], the IC50 at ITK was determined as 181 nM; at BTK it was 4.4 nM.

With `C=CC(=O)N1CCC[C@@H](n2nc(-c3ccc(Oc4ccccc4)cc3)c3c(N)ncc(I)c32)C1` [Example 16, (R)-1-(3-(4-amino-7-iodo-3-(4-phenoxyphenyl)-1H-pyrazolo[4,3-c]pyridin-1-yl)piperidin-1-yl)prop-2-en-1-one], the IC50 came to 2.7 nM at ITK and 1 nM on BTK.

`C=CC(=O)N1CCC[C@@H](n2nc(-c3ccc(C(=O)Nc4ccccc4)cc3)c3c(N)ncc(-c4ccsc4)c32)C1` [Example 31, (R)-4-(1-(1-acryloylpiperidin-3-yl)-4-amino-7-(thiophen-3-yl)-1H-pyrazolo[4,3-c]pyridin-3-yl)-N-phenylbenzamide]: the IC50 at ITK worked out at 376 nM; on BTK it was 15.9 nM.

For `C=CC(=O)N1CCC[C@@H](n2nc(C(=O)Nc3ccccc3)c3c(N)ncc(Cl)c32)C1` [Example 78, (R)-1-(1-acryloylpiperidin-3-yl)-4-amino-7-chloro-N-phenyl-1H-pyrazolo[4,3-c]pyridine-3-carboxamide], the results for the IC50 on ITK and at BTK were 27 nM and 22.1 nM, respectively.

As to `C#CC(=O)N1CCCC(n2nc(-c3ccc(Oc4ccccc4)cc3)c3c(N)nccc32)C1` (stereo not shown) [Example 2, 1-(3-(4-amino-3-(4-phenoxyphenyl)-1H-pyrazolo[4,3-c]pyridin-1-yl)piperidin-1-yl)prop-2-yn-1-one], the concentration for half-maximal inhibition (IC50) at ITK worked out at 15.7 nM; on BTK, 3.5 nM.
